Source: patent publication US20240018161A1, “MODULATORS OF CYSTIC FIBROSIS TRANSMEMBRANE CONDUCTANCE REGULATOR” (VERTEX PHARMACEUTICALS INCORPORATED, priority 2020, published 2024)
pEC50: −log10 of the molar value. Read-outs that look alike come from different tables or passages of the source.

Experiments:
[1] = biological target: CFTR-mediated chloride transport in human intestinal epithelial enteroid cells (Homo sapiens, UniProt P13569); test: Membrane potential dye, Enteroid Assay A; type: cell-based; details: for pEC50: read-out: Ent. A EC50
Procedure, shortened: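 Membrane potential dye (20 μM methyl oxonol, with 30 μM CaCCinh-A01 and 30 μM Chicago Sky Blue) loaded 25 min at room temperature into ROCK-inhibitor-seeded human enteroid cells. Chloride-free stimulation buffer triggered transport, followed by 15 min fluorescence. % Activity relative to 3 μM/3 μM/300 nM triple-combination control.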

[2] = enteroid cells incubated with test compound 18-24 hours, acute 10 μM forskolin and 300 nM N-[2,4-bis(1,1-dimethylethyl)-5-hydroxyphenyl]-1,4-dihydro-4-oxoquinoline-3-carboxamide
[3] = percentage of chloride transport of triple combination control (3 μM N-[(6-amino-2-pyridyl)sulfonyl]-6-(3-fluoro-5-isobutoxy-phenyl)-2-[(4S)-2,2,4-trimethylpyrrolidin-1-yl]pyridine-3-carboxamide based)

Chain of CFTR-mediated chloride transport in human intestinal epithelial enteroid cells (P13569 with tags, fused parts or gaps DEL508-508): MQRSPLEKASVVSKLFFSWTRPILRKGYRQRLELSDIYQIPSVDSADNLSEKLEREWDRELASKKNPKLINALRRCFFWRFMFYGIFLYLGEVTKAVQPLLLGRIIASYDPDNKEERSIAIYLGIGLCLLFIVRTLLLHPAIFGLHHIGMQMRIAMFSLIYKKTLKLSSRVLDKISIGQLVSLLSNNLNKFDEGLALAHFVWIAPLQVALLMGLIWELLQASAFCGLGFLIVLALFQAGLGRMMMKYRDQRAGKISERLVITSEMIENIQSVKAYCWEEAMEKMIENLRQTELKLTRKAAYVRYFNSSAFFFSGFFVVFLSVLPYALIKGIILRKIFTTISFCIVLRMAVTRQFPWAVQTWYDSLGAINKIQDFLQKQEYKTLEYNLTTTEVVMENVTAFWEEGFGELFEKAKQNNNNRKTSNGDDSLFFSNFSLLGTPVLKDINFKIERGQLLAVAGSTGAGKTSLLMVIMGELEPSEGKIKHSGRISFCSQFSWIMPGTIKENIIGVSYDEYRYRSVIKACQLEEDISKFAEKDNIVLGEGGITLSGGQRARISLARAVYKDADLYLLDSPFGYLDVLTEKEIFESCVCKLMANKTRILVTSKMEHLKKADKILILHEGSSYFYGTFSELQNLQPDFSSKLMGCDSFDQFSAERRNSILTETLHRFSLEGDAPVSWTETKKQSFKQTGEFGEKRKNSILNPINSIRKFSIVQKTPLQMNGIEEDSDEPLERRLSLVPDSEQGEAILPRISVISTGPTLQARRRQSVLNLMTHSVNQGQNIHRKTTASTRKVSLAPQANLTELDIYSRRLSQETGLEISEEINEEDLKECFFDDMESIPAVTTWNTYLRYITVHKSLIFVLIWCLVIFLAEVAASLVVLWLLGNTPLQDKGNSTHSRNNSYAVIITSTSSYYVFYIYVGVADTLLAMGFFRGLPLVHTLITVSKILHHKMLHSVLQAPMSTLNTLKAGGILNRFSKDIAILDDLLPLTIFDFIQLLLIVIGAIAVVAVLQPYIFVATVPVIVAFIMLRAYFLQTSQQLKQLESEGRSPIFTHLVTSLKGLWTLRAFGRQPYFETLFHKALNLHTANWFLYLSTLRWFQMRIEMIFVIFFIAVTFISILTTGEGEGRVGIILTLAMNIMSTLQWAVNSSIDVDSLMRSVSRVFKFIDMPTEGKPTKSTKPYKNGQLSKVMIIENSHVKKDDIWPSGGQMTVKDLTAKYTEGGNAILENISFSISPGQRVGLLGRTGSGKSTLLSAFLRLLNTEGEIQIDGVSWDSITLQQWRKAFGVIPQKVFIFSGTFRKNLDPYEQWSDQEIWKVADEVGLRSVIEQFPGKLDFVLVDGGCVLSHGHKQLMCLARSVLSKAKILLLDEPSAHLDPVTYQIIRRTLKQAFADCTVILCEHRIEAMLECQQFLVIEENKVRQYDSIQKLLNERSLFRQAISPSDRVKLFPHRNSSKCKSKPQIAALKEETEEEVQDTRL

Row | Ent. A Max Activity (%) ([1]; Enteroid Assay A) | pEC50 ([1]; Enteroid Assay A) | pEC50 [1, 2] | Compound | Ent. A Max Activity (%) [1, 3] | other results
1 | +++ (+++ is >600%) | > 6.00 |  | Cc1cccc(C)c1-c1cc2nc(n1)NS(=O)(=O)c1cccc(c1)C(=O)N1CCN(C(C)(C)C)C[C@H](C1)O2 [Compound 71, (16R)-18-tert-Butyl-12-(2,6-dimethylphenyl)-15-oxa-8λ^6-thia-1,9,11,18,22-pentaazatetracyclo[14.4.1.13,7.110,14]tricosa-3(23),4,6,10(22),11,13-hexaene-2,8,8-trione] |  | ring closure, yield after HPLC (from Cc1cccc(C)c1-c1cc(Cl)nc(NS(=O)(=O)c2cccc(C(=O)N3CCN(C(C)(C)C)C[C@@H](O)C3)c2)n1, snar bond, 13-membered ring, NaH, DMF, 33.9 mM, 25.0 °C, 4.17 h): 37%
2 |  |  | > 6.00 | Cc1cccc(C)c1-c1cc2nc(n1)NS(=O)(=O)c1cccc(c1)C(=O)N1CCN(CCC3(C(F)(F)F)CC3)CC1CO2 (stereo not shown) [Compound 170, 13-(2,6-Dimethylphenyl)-6-{2-[1-(trifluoromethyl)cyclopropyl]ethyl}-10-oxa-17λ^6-thia-3,6,14,16,23-pentaazatetracyclo[16.3.1.111,15.03,8]tricosa-1(22),11,13,15(23),18,20-hexaene-2,17,17-trione] | ++ (++ is 30-60%) | ring closure, yield after HPLC (from Cc1cccc(C)c1-c1cc(OCC2CN(CCC3(C(F)(F)F)CC3)CCN2)nc(NS(=O)(=O)c2cccc(C(=O)O)c2)n1, amide bond, 13-membered ring, HATU/DIEA, DMF, 18.7 mM, 25.0 °C, 1.0 h, 3 steps): 14%
3 |  |  | 5.52 to 6.00 | Cc1cccc(C)c1-c1cc2nc(n1)NS(=O)(=O)c1cccc(c1)C(=O)N1CCN(C(=O)OC(C)(C)C)CC1C(C)O2 (stereo not shown) [Compound 173, tert-Butyl 13-(2,6-dimethylphenyl)-9-methyl-2,17,17-trioxo-10-oxa-17λ^6-thia-3,6,14,16,23-pentaazatetracyclo[16.3.1.111,15.03,8]tricosa-1(22),11,13,15(23),18,20-hexaene-6-carboxylate] | ++ (++ is 30-60%) | ring closure, yield after HPLC (from Cc1cccc(C)c1-c1cc(OC(C)C2CN(C(=O)OC(C)(C)C)CCN2)nc(NS(=O)(=O)c2cccc(C(=O)O)c2)n1, amide bond, 13-membered ring, HATU/DIEA, DMF, 10.9 mM, 25.0 °C, 0.5 h): 19%
4 | ++ (++ is 30-60%) | > 6.00 |  | Cc1cccc(C)c1-c1cc2nc(n1)NS(=O)(=O)c1cccc(c1)C(=O)N1CCN(C(=O)OC(C)(C)C)CC1C(Cc1ccccc1)O2 (stereo not shown) [Compound 175, tert-butyl 9-benzyl-13-(2,6-dimethylphenyl)-2,17,17-trioxo-10-oxa-17λ^6-thia-3,6,14,16,23-pentaazatetracyclo[16.3.1.111,15.03,8]tricosa-1(22),11,13,15(23),18,20-hexaene-6-carboxylate] |  | ring closure, yield after HPLC (from Cc1cccc(C)c1-c1cc(OC(Cc2ccccc2)C2CN(C(=O)OC(C)(C)C)CCN2)nc(NS(=O)(=O)c2cccc(C(=O)O)c2)n1, amide bond, 13-membered ring, HATU/DIEA, DMF, 10.8 mM, 25.0 °C, 0.083 h): 55%
5 |  | > 6.00 |  | Cc1cccc(C)c1-c1cc2nc(n1)NS(=O)(=O)c1cccc(c1)C(=O)N1Cc3cc(C(C)(C)C)ccc3[C@@H](O2)[C@H]1CC(C)(C)C [Compound 189, (16R,24R)-20-tert-butyl-12-(2,6-dimethylphenyl)-24-(2,2-dimethylpropyl)-15-oxa-8λ^6-thia-1,9,11,25-tetraazapentacyclo[14.7.1.13,7.110,14.017,22]hexacosa-3(26),4,6,10(25),11,13,17,19,21-nonaene-2,8,8-trione] |  | ring closure, yield after HPLC (from Cc1cccc(C)c1-c1cc(O[C@@H]2c3ccc(C(C)(C)C)cc3CN[C@@H]2CC(C)(C)C)nc(NS(=O)(=O)c2cccc(C(=O)O)c2)n1, amide bond, 13-membered ring, HATU/NaOtBu, DMF/THF, 0.25 h, 2 steps): 0.35%
6 |  |  | 4.52 to 5.52 | Cc1cccc(C)c1-c1cc2nc(n1)NS(=O)(=O)c1cccc(c1)C(=O)N1CC[C@@H](C1)O2 [Compound 213, (3S)-17-(2,6-Dimethylphenyl)-2-oxa-13λ^6-thia-6,14,16,19-tetraazatetracyclo[13.3.1.13,6.18,12]henicosa-1(19),8(20),9,11,15,17-hexaene-7,13,13-trione] | +++ (+++ is >60%) | ring closure, yield after HPLC (from Cc1cccc(C)c1-c1cc(O[C@H]2CCNC2)nc(NS(=O)(=O)c2cccc(C(=O)O)c2)n1, amide bond, 13-membered ring, HATU/TEA, DMF, 53.7 mM, 25.0 °C, 1.0 h): 20%
7 | ++ (++ is 30-60%) | 5.52 to 6.00 |  | Cc1cccc(C)c1-c1cc2nc(n1)NS(=O)(=O)c1cccc(c1)C(=O)N1CC(CCc3ccccc31)O2 (stereo not shown) [Compound 228, 5-(2,6-Dimethylphenyl)-2-oxa-9λ^6-thia-6,8,16,27-tetraazapentacyclo[14.8.1.13,7.110,14.017,22]heptacosa-3(27),4,6,10,12,14(26),17(22),18,20-nonaene-9,9,15-trione] |  | ring closure, yield after HPLC (from Cc1cccc(C)c1-c1cc(Cl)nc(NS(=O)(=O)c2cccc(C(=O)N3CC(O)CCc4ccccc43)c2)n1, snar bond, 13-membered ring, NaH, DMF, 21.9 mM, 25.0 °C, 48.0 h): 15%

Further lines, the compound ahead of its results:

Row | Compound | Ent. A Max Activity (%) ([1]; Enteroid Assay A) | pEC50 ([1]; Enteroid Assay A) | pEC50 [1, 2] | Ent. A Max Activity (%) [1, 3] | other results
8 | Cc1cccc(C)c1-c1cc2nc(n1)NS(=O)(=O)c1cccc(c1)C(=O)N1CC(CN(Cc3ccccc3)[C@@H](CC(C)C)C1)O2 (stereo partly drawn) [Compound 107, (19S)-18-Benzyl-12-(2,6-dimethylphenyl)-19-(2-methylpropyl)-15-oxa-8λ^6-thia-1,9,11,18,22-pentaazatetracyclo[14.4.1.13,7.110,14]tricosa-3(23),4,6,10(22),11,13-hexaene-2,8,8-trione] | +++ (+++ is >600%) | > 6.00 |  |  | ring closure, yield after HPLC (from Cc1cccc(C)c1-c1cc(Cl)nc(NS(=O)(=O)c2cccc(C(=O)N3CC(O)CN(Cc4ccccc4)[C@@H](CC(C)C)C3)c2)n1, snar bond, 13-membered ring, NaH, DMF, 29.1 mM, 0.0 °C, 4.0 h): 3%
9 | Cc1cccc(C)c1-c1cc2nc(n1)NS(=O)(=O)c1cccc(c1)NC(=O)CN1CCCC(C1)O2 (stereo not shown) [Compound 160, 5-(2,6-Dimethylphenyl)-2-oxa-9λ^6-thia-6,8,15,18,24-pentaazatetracyclo[16.3.1.13,7.110,14]tetracosa-3(24),4,6,10,12,14(23)-hexaene-9,9,16-trione] |  |  | 5.52 to 6.00 | + (+ is <300%) | ring closure, yield after HPLC (from Cc1cccc(C)c1-c1cc(OC2CCCN(CC(=O)Nc3cccc(S(N)(=O)=O)c3)C2)nc(Cl)n1, cn_pd bond, 15-membered ring, Pd(OAc)2/Xantphos/Cs2CO3, dioxane, 20.1 mM, 100.0 °C, 16.0 h): 17%
10 | Cc1ccccc1-c1cc2nc(n1)NS(=O)(=O)c1cccc(c1)C(=O)N1Cc3ccccc3[C@@H](O2)[C@H]1CC(C)C [Compound 192, (16R,24R)-12-(2-Methylphenyl)-24-(2-methylpropyl)-15-oxa-8λ^6-thia-1,9,11,25-tetraazapentacyclo[14.7.1.13,7.110,14.017,22]hexacosa-3(26),4,6,10,12,14(25),17,19,21-nonaene-2,8,8-trione] |  | > 6.00 |  |  | ring closure, yield after HPLC (from Cc1ccccc1-c1cc(O[C@@H]2c3ccccc3CN[C@@H]2CC(C)C)nc(NS(=O)(=O)c2cccc(C(=O)O)c2)n1, amide bond, 13-membered ring, HATU/DIEA, DMF, 424.0 mM, 0.5 h, 3 steps): 9%
11 | Cc1cccc(C)c1-c1cc2nc(n1)NS(=O)(=O)c1cccc(c1)C(=O)N1Cc3cnccc3C(C1)O2 (stereo not shown) [Compound 194, 12-(2,6-Dimethylphenyl)-15-oxa-8λ^6-thia-1,9,11,20,25-pentaazapentacyclo[14.7.1.13,7.110,14.017,22]hexacosa-3(26),4,6,10,12,14(25),17,19,21-nonaene-2,8,8-trione] |  |  | 4.52 to 5.52 | ++ (++ is 30-60%) | ring closure, yield after HPLC (from Cc1cccc(C)c1-c1cc(OC2CNCc3cnccc32)nc(NS(=O)(=O)c2cccc(C(=O)O)c2)n1, amide bond, 13-membered ring, HATU/DIEA, DMF, 19.0 mM, 0.5 h, 3 steps): 1%
12 | Cc1cccc(C)c1-c1cc2nc(n1)NS(=O)(=O)c1cccc(c1)C(=O)N1Cc3ncccc3C(C1)O2 (stereo not shown) [Compound 198, 12-(2,6-Dimethylphenyl)-15-oxa-8λ^6-thia-1,9,11,21,25-pentaazapentacyclo[14.7.1.13,7.110,14.017,22]hexacosa-3,5,7(26),10(25),11,13,17,19,21-nonaene-2,8,8-trione] |  |  | 5.52 to 6.00 | ++ (++ is 30-60%) | ring closure, yield after HPLC (from Cc1cccc(C)c1-c1cc(OC2CNCc3ncccc32)nc(NS(=O)(=O)c2cccc(C(=O)O)c2)n1, amide bond, 13-membered ring, HATU/DIEA, NMP, 132.0 mM, 25.0 °C, 1.0 h): 44%
13 | Cc1cccc(C)c1-c1cc2nc(n1)NS(=O)(=O)c1cccc(c1)C(=O)N1CCC(O2)c2ccccc2C1 (stereo not shown) [Compound 227, 12-(2,6-dimethylphenyl)-15-oxa-8λ^6-thia-1,9,11,26-tetraazapentacyclo[14.7.2.13,7.110,14.017,22]heptacosa-3(27),4,6,10(26),11,13,17,19,21-nonaene-2,8,8-trione] |  |  | > 6.00 | ++ (++ is 30-60%) | ring closure, yield after HPLC (from Cc1cccc(C)c1-c1cc(OC2CCNCc3ccccc32)nc(NS(=O)(=O)c2cccc(C(=O)O)c2)n1, amide bond, 14-membered ring, HATU/DIEA, DMF, 13.1 mM, 25.0 °C, 0.083 h, 3 steps): 12%
